According to ChEMBL document CHEMBL3991601, “The target landscape of clinical kinase drugs” (Science, 2017):
Calls of active or inactive are those of the source.

Legend:
[1] = molecular target: High affinity nerve growth factor receptor (Homo sapiens, UniProt P04629)
[2] = molecular target: Membrane-associated progesterone receptor component 1 (Homo sapiens, UniProt O00264)
[3] = molecular target: Serine/threonine-protein kinase ATR (Homo sapiens, UniProt Q13535)
[4] = molecular target: PAS domain-containing serine/threonine-protein kinase (Homo sapiens, UniProt Q96RG2)
[5] = molecular target: Serine/threonine-protein kinase N3 (Homo sapiens, UniProt Q6P5Z2)
[6] = molecular target: Dual specificity testis-specific protein kinase 1 (Homo sapiens, UniProt Q15569)
[7] = molecular target: T1, Adenine phosphoribosyltransferase (Homo sapiens, UniProt P07741)
T1 sequence (P07741 whole entry): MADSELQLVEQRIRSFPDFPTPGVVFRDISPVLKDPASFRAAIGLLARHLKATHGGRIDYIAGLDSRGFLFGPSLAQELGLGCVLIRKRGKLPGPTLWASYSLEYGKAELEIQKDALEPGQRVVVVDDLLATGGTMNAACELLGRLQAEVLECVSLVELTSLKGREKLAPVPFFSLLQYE

[8] = molecular target: Serine/threonine-protein kinase MRCK gamma (Homo sapiens, UniProt Q6DT37)
[9] = molecular target: T2, Inhibitor of nuclear factor kappa-B kinase subunit epsilon (Homo sapiens, UniProt Q14164)
T2 sequence (Q14164 whole entry): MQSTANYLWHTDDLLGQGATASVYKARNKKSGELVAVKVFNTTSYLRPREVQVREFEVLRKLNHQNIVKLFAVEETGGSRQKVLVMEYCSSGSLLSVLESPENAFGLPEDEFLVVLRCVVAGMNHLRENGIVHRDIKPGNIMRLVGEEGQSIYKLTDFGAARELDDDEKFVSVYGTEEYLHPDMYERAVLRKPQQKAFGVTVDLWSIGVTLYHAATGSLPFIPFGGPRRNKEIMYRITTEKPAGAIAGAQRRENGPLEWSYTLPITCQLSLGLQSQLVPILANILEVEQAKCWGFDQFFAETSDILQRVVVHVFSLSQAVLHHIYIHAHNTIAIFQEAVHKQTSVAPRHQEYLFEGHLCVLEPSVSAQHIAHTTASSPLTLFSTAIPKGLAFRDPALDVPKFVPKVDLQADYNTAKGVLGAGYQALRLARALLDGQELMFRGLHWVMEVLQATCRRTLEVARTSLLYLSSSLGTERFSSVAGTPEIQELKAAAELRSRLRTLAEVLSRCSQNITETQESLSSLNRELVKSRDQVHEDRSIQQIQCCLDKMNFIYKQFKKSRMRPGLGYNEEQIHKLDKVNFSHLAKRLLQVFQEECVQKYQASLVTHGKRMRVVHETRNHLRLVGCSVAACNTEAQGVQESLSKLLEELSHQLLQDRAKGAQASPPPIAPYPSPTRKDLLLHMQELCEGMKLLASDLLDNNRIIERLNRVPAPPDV

[10] = molecular target: Proto-oncogene tyrosine-protein kinase receptor Ret (Homo sapiens, UniProt P07949)
[11] = molecular target: Hepatocyte growth factor receptor (Homo sapiens, UniProt P08581)
[12] = molecular target: Epidermal growth factor receptor (Homo sapiens, UniProt P00533)
[13] = molecular target: T3, Eukaryotic translation initiation factor 5B (Homo sapiens, UniProt O60841)
T3 sequence (O60841 whole entry): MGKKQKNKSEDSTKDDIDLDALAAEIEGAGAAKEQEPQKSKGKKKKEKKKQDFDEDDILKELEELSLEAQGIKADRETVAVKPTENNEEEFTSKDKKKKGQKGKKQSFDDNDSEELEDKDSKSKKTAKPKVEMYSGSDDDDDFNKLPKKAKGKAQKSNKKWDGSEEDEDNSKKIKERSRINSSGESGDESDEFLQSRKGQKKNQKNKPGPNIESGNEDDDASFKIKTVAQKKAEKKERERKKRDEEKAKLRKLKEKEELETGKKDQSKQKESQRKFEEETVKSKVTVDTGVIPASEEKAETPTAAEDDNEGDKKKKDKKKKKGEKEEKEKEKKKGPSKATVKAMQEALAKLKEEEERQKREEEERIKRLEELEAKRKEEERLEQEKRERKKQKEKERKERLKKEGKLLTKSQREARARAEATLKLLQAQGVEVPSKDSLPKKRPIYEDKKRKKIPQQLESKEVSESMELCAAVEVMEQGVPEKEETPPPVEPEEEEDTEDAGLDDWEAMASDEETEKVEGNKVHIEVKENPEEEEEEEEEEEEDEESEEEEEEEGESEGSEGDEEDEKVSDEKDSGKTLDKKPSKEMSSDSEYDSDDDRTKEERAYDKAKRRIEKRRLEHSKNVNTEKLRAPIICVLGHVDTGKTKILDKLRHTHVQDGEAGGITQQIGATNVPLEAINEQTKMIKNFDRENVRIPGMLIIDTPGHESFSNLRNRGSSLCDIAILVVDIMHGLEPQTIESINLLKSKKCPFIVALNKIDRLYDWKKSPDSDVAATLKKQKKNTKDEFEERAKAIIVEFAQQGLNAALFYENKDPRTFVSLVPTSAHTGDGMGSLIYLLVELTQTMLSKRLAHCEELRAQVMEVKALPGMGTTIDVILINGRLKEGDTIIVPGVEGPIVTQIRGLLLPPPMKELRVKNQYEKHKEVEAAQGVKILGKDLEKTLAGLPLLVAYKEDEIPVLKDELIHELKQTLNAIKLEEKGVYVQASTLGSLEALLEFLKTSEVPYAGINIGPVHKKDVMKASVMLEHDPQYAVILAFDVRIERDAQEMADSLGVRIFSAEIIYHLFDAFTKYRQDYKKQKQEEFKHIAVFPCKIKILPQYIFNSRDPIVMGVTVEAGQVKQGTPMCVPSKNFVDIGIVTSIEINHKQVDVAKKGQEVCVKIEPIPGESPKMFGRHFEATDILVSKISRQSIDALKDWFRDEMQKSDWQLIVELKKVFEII
Also: in the data inactive means no Kd found up to 30 µM.

Hepatocyte growth factor receptor, sequence (P08581 whole entry): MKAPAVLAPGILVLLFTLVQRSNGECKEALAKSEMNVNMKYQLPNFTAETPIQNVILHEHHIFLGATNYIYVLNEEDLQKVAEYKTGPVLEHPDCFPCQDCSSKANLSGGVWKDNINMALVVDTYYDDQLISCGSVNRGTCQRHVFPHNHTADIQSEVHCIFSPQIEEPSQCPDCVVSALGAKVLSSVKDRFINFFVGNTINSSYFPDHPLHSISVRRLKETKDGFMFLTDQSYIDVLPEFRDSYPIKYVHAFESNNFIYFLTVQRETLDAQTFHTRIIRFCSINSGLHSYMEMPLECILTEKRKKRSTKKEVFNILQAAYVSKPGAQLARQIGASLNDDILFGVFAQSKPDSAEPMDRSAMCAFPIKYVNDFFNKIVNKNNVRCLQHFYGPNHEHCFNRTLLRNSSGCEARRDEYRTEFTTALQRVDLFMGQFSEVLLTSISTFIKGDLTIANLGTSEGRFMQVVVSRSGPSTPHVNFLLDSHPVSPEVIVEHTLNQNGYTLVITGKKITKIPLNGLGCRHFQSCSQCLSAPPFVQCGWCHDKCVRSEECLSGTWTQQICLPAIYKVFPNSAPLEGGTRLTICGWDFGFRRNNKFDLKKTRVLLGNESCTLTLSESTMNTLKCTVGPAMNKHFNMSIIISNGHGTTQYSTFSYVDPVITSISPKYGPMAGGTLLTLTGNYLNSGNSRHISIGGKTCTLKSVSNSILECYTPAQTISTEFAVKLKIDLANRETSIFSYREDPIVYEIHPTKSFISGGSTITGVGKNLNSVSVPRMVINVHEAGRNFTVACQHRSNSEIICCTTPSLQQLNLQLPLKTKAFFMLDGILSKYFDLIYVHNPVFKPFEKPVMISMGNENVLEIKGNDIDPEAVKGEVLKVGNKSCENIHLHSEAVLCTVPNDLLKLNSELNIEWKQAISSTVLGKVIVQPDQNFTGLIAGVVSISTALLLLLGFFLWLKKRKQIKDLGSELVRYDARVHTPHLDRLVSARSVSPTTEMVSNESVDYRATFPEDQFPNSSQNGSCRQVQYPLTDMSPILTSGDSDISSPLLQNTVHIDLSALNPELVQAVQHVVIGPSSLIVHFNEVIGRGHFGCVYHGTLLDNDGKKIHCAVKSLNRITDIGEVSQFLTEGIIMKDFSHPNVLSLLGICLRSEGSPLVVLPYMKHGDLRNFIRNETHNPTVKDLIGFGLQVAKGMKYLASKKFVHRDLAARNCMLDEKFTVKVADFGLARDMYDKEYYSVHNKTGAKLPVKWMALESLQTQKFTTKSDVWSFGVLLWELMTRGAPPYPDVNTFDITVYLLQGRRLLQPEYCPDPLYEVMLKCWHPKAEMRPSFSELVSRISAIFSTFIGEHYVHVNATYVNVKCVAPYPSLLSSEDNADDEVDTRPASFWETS
Dual specificity testis-specific protein kinase 1, sequence (Q15569 whole entry): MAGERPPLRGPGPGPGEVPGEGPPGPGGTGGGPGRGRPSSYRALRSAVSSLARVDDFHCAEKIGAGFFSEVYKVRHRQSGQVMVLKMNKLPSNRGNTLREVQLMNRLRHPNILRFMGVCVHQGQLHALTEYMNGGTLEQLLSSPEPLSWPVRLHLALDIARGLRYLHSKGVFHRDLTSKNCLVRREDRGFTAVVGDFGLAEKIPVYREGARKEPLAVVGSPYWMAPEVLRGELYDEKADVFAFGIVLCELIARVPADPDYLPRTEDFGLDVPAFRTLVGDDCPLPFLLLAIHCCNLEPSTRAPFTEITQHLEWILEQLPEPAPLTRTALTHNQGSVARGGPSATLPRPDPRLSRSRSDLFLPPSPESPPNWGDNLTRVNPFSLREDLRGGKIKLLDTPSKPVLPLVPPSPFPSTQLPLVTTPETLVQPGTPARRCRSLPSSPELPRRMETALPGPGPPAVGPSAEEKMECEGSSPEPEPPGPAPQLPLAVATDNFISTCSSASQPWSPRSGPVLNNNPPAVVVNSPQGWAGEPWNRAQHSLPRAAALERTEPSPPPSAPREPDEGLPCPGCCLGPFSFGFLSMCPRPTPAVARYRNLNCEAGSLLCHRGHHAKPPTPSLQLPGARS
Membrane-associated progesterone receptor component 1, sequence (O00264 whole entry): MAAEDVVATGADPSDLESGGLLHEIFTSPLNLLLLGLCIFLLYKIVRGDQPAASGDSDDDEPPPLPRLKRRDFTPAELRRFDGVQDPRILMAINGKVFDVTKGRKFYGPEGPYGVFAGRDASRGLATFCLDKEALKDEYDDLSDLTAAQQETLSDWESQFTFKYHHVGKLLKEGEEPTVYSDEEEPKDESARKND
Proto-oncogene tyrosine-protein kinase receptor Ret, sequence (P07949 whole entry): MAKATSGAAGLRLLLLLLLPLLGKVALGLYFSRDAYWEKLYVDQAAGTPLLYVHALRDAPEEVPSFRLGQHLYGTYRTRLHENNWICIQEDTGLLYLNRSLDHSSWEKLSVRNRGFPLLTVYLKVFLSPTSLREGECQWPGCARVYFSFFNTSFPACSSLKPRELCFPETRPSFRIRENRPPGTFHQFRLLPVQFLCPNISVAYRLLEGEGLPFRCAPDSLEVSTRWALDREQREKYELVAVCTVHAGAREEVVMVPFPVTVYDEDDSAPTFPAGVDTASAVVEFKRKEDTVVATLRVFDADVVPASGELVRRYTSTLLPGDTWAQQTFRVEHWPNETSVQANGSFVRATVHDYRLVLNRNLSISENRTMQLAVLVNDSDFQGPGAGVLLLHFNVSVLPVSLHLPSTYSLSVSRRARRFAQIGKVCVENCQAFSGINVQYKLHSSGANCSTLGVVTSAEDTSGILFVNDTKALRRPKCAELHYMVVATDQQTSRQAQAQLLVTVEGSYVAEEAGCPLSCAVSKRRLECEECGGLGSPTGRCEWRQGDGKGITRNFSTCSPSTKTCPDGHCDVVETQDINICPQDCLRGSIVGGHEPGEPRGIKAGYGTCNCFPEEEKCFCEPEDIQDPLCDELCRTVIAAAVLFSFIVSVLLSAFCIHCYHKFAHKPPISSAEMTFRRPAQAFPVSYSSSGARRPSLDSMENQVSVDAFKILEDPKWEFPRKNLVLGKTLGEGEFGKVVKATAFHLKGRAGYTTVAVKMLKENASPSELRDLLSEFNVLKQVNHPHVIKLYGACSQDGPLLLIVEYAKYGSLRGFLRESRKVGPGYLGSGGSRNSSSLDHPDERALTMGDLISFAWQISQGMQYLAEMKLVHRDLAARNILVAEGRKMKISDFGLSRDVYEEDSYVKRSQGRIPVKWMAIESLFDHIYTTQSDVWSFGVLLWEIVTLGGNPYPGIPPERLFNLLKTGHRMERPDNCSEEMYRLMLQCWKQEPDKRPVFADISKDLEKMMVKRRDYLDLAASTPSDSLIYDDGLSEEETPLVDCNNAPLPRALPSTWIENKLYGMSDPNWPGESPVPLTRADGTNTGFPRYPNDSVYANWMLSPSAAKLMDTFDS
High affinity nerve growth factor receptor, sequence (P04629 whole entry): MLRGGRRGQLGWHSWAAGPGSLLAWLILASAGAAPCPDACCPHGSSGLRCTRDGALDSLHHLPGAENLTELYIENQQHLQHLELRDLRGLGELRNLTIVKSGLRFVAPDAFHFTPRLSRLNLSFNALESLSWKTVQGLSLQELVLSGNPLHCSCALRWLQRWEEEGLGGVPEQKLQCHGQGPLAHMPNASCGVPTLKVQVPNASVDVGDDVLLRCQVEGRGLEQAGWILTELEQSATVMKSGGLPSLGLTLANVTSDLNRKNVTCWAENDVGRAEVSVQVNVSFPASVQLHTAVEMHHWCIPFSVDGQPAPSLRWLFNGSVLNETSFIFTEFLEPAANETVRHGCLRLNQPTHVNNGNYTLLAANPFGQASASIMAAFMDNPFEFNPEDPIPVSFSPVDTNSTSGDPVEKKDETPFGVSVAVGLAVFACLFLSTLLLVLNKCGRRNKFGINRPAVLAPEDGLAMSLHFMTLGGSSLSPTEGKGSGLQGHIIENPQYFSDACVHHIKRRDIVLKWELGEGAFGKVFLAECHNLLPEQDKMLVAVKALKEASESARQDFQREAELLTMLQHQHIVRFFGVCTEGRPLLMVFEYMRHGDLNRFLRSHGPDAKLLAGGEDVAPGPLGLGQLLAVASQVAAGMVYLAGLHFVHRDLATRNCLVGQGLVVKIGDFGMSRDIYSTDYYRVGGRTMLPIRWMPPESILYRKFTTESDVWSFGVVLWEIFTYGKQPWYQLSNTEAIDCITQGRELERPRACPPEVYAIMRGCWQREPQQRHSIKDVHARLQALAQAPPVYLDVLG
Serine/threonine-protein kinase N3, sequence (Q6P5Z2 whole entry): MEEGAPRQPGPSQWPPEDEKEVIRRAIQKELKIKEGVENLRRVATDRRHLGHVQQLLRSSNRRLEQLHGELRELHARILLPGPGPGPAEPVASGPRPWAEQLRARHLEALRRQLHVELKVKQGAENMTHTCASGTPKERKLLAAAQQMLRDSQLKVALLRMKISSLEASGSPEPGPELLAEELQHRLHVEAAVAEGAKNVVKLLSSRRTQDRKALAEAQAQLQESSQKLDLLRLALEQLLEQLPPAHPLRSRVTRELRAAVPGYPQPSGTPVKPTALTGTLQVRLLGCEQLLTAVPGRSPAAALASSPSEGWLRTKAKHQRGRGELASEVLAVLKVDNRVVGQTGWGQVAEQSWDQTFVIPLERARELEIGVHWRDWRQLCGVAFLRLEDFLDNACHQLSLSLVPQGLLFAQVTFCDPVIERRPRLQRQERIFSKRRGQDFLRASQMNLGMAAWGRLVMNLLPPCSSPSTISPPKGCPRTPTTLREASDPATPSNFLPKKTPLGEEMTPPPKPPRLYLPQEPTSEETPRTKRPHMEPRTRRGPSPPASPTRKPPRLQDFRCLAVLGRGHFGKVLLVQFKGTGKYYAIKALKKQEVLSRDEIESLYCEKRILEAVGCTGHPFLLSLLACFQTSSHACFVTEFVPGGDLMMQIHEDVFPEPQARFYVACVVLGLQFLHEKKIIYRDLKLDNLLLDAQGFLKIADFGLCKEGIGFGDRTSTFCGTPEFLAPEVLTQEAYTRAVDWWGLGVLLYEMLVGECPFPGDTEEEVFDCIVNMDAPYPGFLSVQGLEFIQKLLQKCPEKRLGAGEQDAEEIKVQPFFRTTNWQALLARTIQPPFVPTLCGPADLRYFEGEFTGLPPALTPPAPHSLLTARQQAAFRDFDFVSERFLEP

Kd [1]	Kd [2]	Kd [3]	Kd [4]	Kd [5]	Kd [6]	Kd [7]	Kd [8]	Kd [9]	Kd [10]	Kd [11]	Kd [12]	Kd [13]	SMILES
2.25 µM	> 30 µM (inactive)	> 30 µM (inactive)	> 30 µM (inactive)	> 30 µM (inactive)	> 30 µM (inactive)	> 30 µM (inactive)	> 30 µM (inactive)	> 30 µM (inactive)	0.029 µM (active)	> 30 µM (inactive)	> 30 µM (inactive)	> 30 µM (inactive)	COc1cc(CCc2cc(NC(=O)c3ccc(N4C[C@@H](C)N[C@@H](C)C4)cc3)n[nH]2)cc(OC)c1 [AZD-4547]
> 30 µM (inactive)	> 30 µM (inactive)	> 30 µM (inactive)	> 30 µM (inactive)	> 30 µM (inactive)	> 30 µM (inactive)	> 30 µM (inactive)	> 30 µM (inactive)	> 30 µM (inactive)	> 30 µM (inactive)	> 30 µM (inactive)	> 30 µM (inactive)	> 30 µM (inactive)	Cc1cc([C@@H](C)Nc2ccccc2C(=O)O)c2nc(N3CCOCC3)cc(=O)n2c1 [AZD-6482]
> 30 µM (inactive)	> 30 µM (inactive)	> 30 µM (inactive)	> 30 µM (inactive)	> 30 µM (inactive)	> 30 µM (inactive)	> 30 µM (inactive)	> 30 µM (inactive)	> 30 µM (inactive)	> 30 µM (inactive)	> 30 µM (inactive)	> 30 µM (inactive)	> 30 µM (inactive)	COc1ccc(-c2ccc3c(N4CCOC[C@@H]4C)nc(N4CCOC[C@@H]4C)nc3n2)cc1CO [AZD-8055]
> 30 µM (inactive)	> 30 µM (inactive)	> 30 µM (inactive)	> 30 µM (inactive)	> 30 µM (inactive)	> 30 µM (inactive)	> 30 µM (inactive)	> 30 µM (inactive)	> 30 µM (inactive)	2.42 µM (active)	> 30 µM (inactive)	> 30 µM (inactive)		Cc1ccc(NC(=O)c2ccc(CN3CC[C@H](N(C)C)C3)c(C(F)(F)F)c2)cc1Nc1nccc(-c2cncnc2)n1 [BAFETINIB]
> 30 µM (inactive)	0.204 µM	> 30 µM (inactive)	> 30 µM (inactive)	> 30 µM (inactive)		> 30 µM (inactive)	> 30 µM (inactive)	> 30 µM (inactive)	> 30 µM (inactive)	> 30 µM (inactive)	> 30 µM (inactive)	> 30 µM (inactive)	COC(=O)N[C@@H](C)CNc1nccc(-c2cn(C(C)C)nc2-c2cc(Cl)cc(NS(C)(=O)=O)c2F)n1 [ENCORAFENIB]
> 30 µM (inactive)	> 30 µM (inactive)	> 30 µM (inactive)	> 30 µM (inactive)	> 30 µM (inactive)	> 30 µM (inactive)	> 30 µM (inactive)	> 30 µM (inactive)	> 30 µM (inactive)	> 30 µM (inactive)	0.002 µM (active)	> 30 µM (inactive)	> 30 µM (inactive)	Cn1cc(-c2ccc3nnc(C(F)(F)c4ccc5ncccc5c4)n3n2)cn1 [JNJ-38877605]
> 30 µM (inactive)	> 30 µM (inactive)	> 30 µM (inactive)	> 30 µM (inactive)	> 30 µM (inactive)	> 30 µM (inactive)	> 30 µM (inactive)	> 30 µM (inactive)	> 30 µM (inactive)	> 30 µM (inactive)	> 30 µM (inactive)	> 30 µM (inactive)		C[C@@H]1CN(Cc2ccc(F)cc2)[C@@H](C)CN1C(=O)c1cc2c(C(=O)C(=O)N(C)C)cn(C)c2cc1Cl [TALMAPIMOD]
> 30 µM (inactive)		> 30 µM (inactive)	> 30 µM (inactive)	> 30 µM (inactive)	> 30 µM (inactive)	> 30 µM (inactive)	> 30 µM (inactive)	0.342 µM (active)	1.33 µM (active)	> 30 µM (inactive)	> 30 µM (inactive)	> 30 µM (inactive)	O=C(Nc1ccc(-c2ccnc(Nc3ccc(N4CCOCC4)cc3)n2)cc1)C1CCCN1 (configuration not stated) [XL-019]

SMILES	Kd [1]	Kd [2]	Kd [3]	Kd [4]	Kd [5]	Kd [6]	Kd [7]	Kd [8]	Kd [9]	Kd [10]	Kd [11]	Kd [12]	Kd [13]
Cc1cc(-c2cc(O)ccc2Cl)cc2nnc(Nc3ccc(OCCN4CCCC4)cc3)nc12	> 30 µM (inactive)	> 30 µM (inactive)	> 30 µM (inactive)	> 30 µM (inactive)	> 30 µM (inactive)	> 30 µM (inactive)	> 30 µM (inactive)	> 30 µM (inactive)	> 30 µM (inactive)	0.001 µM (active)	> 30 µM (inactive)	> 30 µM (inactive)	
